One series deals with T1, human GlyT2 (Homo sapiens, UniProt Q9Y345).
T1 construct: expressed in transfected cells
T1 sequence (Q9Y345 1-797): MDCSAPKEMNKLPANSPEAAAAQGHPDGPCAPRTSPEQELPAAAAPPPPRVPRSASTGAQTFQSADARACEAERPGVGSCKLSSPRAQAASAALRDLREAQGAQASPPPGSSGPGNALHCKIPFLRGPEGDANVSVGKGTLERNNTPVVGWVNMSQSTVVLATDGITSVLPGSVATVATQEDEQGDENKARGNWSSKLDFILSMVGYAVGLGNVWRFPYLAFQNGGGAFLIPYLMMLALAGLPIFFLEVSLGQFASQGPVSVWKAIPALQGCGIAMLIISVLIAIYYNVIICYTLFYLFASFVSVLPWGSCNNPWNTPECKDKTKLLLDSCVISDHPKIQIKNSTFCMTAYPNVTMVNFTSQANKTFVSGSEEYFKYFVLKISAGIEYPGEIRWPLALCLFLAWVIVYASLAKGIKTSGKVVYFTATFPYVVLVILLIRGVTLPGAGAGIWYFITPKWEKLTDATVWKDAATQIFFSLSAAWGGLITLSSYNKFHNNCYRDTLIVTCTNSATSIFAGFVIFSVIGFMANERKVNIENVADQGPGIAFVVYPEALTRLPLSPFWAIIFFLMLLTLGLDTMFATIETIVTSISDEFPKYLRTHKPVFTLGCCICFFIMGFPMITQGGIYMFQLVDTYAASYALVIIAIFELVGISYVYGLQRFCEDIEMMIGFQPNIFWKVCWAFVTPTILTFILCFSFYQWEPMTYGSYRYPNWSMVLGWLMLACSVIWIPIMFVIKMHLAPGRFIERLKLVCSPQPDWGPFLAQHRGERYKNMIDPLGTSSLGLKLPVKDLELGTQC
Briefly: Glycine uptake assay (GlyT2 assay). The class given is cell-based. Particulars: HEK 293 cells stably transfected with human GlyT2; 14C-glycine 10 μM; room temperature 2-3 hours. The protocol: Experiment 1 Glycine uptake assay (GlyT2 and GlyT1 assay)
Inhibitory activity on GlyT2 and GlyT1 was examined by glycine uptake assays using cells expressing GlyT2 or GlyT1, as described in the literatures, Caulfield et al. (J. Med. Chem., 2001, 44, 2679-2682), Williams et al. (Anal. Biochem., 2003, 321, 31-37, etc.), and/or Morrow et al. (FEBS Letters, 1998, 439: 334-340).
Briefly, the assays were performed as follows.
HEK 293 cells stably transfected with either human GlyT2 or human GlyT1b were used. The cells were grown in 96-well Cytostar-T™ scintillating microplates (20,000-40,000 cells/well) overnight before removal of culture medium and addition of HEPES buffered saline containing glycine (10 μM) labeled with ^14C and varying concentrations of test compounds.
Plates were incubated at room temperature for 2-3 hours, and then, the plates were counted in a plate counter.
Data were analyzed by the sigmoid dose-response curve fitting to produce IC50 (the concentration of test compound producing 50% inhibition) values.

Melting point and IC50 data for two compounds are collected here from patent US7718703B2, “Norvaline derivative and method for preparation thereof” (Mitsubishi Tanabe Pharma Corporation, priority 2006, dated 2010).

Bounds are passed on as bounds.

As a reminder, the melting point is the temperature of the solid-liquid transition. `CCCCCCOc1ccc(C(=O)N[C@@H](CCC)C(=O)NCCN(C)C)cc1` [Example 1.001, N-[(1S)-1-[[[2-(dimethylamino)ethyl]amino]carbonyl]butyl]-4-(hexyloxy)benzamide]: the melting point lay within 103 to 104 °C.

A word on the IC50: it is the concentration needed to halve the response being measured. The low end stands for greater potency in that assay, the high end for weaker potency in that assay. As to `CCC[C@H](NC(=O)c1cc(OC)c(OCc2ccccc2)c(OC)c1)C(=O)NCC1(N(C)C)CCCC1` [Example 1.026], at human GlyT2, the IC50 was < 10 nM.
